Active and inactive are the calls of the source. The rule behind the calls is not given here.
What was measured:
in vitro = conditions: human, A549 cells
Influenza A virus [1] = format: functional, organism-based; conditions: A/Duck/Guangdong/212/2004(H5N1), A549
[2] = Cytotoxicity against human A549 cells assessed as reduction in cell viability by MTT assay; format: cell-based
MDCK [3] = experiment: (§1) Cytotoxicity against dog MDCK cells assessed as reduction in cell viability; format: cell-based, Canis lupus familiaris; conditions: mdck
[4] = as §1; format: cell-based, Canis lupus familiaris; conditions: MDCK cells
Influenza A virus [5] = format: functional, organism-based; conditions: A/Duck/Guangdong/212/2004(H5N1), dose 80.0 mg/kg, time 5.0 day
MDCK [6] = experiment: Cytotoxicity against dog MDCK cells assessed as reduction in cell viability at 0.78125 to 200 uM; format: cell-based, Canis lupus familiaris; conditions: dose 0.78125-200 µM
Erythrocyte = experiment: Inhibition of Hemagglutinin in Influenza A virus (H5N1) assessed as reduction in virus-induced agglutination of chicken erythrocytes by hemagglutination assay; format: cell-based; conditions: dose microM 5-160
[7] = (§2) Binding affinity to Influenza A virus (A/Viet Nam/1203/2004(H5N1)) hemagglutin by surface plasmon resonance assay
[8] = test system: Influenza A virus (A/Viet Nam/1203/2004(H5N1)); experiment: as §2
Influenza A virus [9] = format: functional, organism-based; conditions: A/Duck/Guangdong/212/2004(H5N1), A549, dose 25.0 µM
[10] = test system: Vesicular stomatitis virus; experiment: Antiviral activity against VSV-G enveloped pseudovirus infected in MDCK cells assessed as inhibition of viral entry at 1 to 100 uM; format: functional, organism-based; conditions: dose microM 1-100
Influenza A virus [11] = format: functional, organism-based; conditions: A/Duck/Guangdong/212/2004(H5N1), dose mg/kg 40-160, time 5.0 day
H5N1 subtype = experiment: Antiviral activity against Influenza A virus (A/Thailand/Kan353/2004(H5N1)) infected in MDCK cells assessed as inhibition of viral entry; format: functional, organism-based
[12] = test system: Influenza A virus (A/Thailand/Kan353/2004(H5N1)); experiment: Inhibition of Influenza A virus (A/Thailand/Kan353/2004(H5N1)) neuraminidase N1 at 5 to 20 microM by fluorescence method; conditions: dose microM 5-20

`CCOC(=O)[C@]12CC[C@@H](C)[C@H](C)[C@H]1C1=CC[C@@H]3[C@@]4(C)CC[C@@H](O[C@@H]5O[C@H](CO)[C@@H](O[C@@H]6O[C@@H](C)[C@H](O)[C@@H](O)[C@H]6O)[C@H](O)[C@H]5O[C@@H]5O[C@@H](C)[C@H](O)[C@@H](O)[C@H]5O)C(C)(C)[C@@H]4CC[C@@]3(C)[C@]1(C)CC2` gave a selectivity ratio (in vitro) of 20.7, an IC50 (Influenza A virus [1]) of 18.1 µM and a CC50 [2] of 375 µM.

With `C[C@H]1[C@H](C)CC[C@]2(C(=O)NC3CCCC3)CC[C@]3(C)C(=CC[C@@H]4[C@@]5(C)CC[C@@H](O[C@@H]6O[C@H](CO)[C@@H](O[C@@H]7O[C@@H](C)[C@H](O)[C@@H](O)[C@H]7O)[C@H](O)[C@H]6O[C@@H]6O[C@@H](C)[C@H](O)[C@@H](O)[C@H]6O)C(C)(C)[C@@H]5CC[C@]43C)[C@H]12` the selectivity ratio (in vitro) was > 54.1, the IC50 (Influenza A virus [1]) was 18.5 µM and the CC50 [2] was > 1000 µM.

Molecule `COC(=O)[C@]12CC[C@@H](C)[C@H](C)[C@H]1C1=CC[C@@H]3[C@@]4(C)CC[C@@H](O[C@@H]5O[C@H](CO)[C@@H](O[C@@H]6O[C@@H](C)[C@H](O)[C@@H](O)[C@H]6O)[C@H](O)[C@H]5O[C@@H]5O[C@@H](C)[C@H](O)[C@@H](O)[C@H]5O)C(C)(C)[C@@H]4CC[C@@]3(C)[C@]1(C)CC2` has a selectivity ratio (in vitro) of 22.1, an IC50 (Influenza A virus [1]) of 16.4 µM and a CC50 [2] of 363 µM. The Activity (MDCK [3]) was “Non-Toxic”.

`CCCCCOC(=O)[C@]12CC[C@@H](C)[C@H](C)[C@H]1C1=CC[C@@H]3[C@@]4(C)CC[C@@H](O[C@@H]5O[C@H](CO)[C@@H](O[C@@H]6O[C@@H](C)[C@H](O)[C@@H](O)[C@H]6O)[C@H](O)[C@H]5O[C@@H]5O[C@@H](C)[C@H](O)[C@@H](O)[C@H]5O)C(C)(C)[C@@H]4CC[C@@]3(C)[C@]1(C)CC2` gave a selectivity ratio (in vitro) of 16.7, an IC50 (Influenza A virus [1]) of 29.3 µM and a CC50 [2] of 489 µM.

Work on `C[C@H]1[C@H](C)CC[C@]2(C(=O)N(C)C)CC[C@]3(C)C(=CC[C@@H]4[C@@]5(C)CC[C@H](O[C@@H]6O[C@H](CO)[C@@H](O[C@@H]7O[C@@H](C)[C@H](O)[C@@H](O)[C@H]7O)[C@H](O)[C@H]6O[C@@H]6O[C@@H](C)[C@H](O)[C@@H](O)[C@H]6O)C(C)(C)[C@@H]5CC[C@]43C)[C@H]12` yielded a CC50 [4] of 47 µM.

In the case of `C[C@H]1[C@H](C)CC[C@]2(C(=O)NCc3ccccc3)CC[C@]3(C)C(=CC[C@@H]4[C@@]5(C)CC[C@@H](O[C@@H]6O[C@H](CO)[C@@H](O[C@@H]7O[C@@H](C)[C@H](O)[C@@H](O)[C@H]7O)[C@H](O)[C@H]6O[C@@H]6O[C@@H](C)[C@H](O)[C@@H](O)[C@H]6O)C(C)(C)[C@@H]5CC[C@]43C)[C@H]12`, the IC50 (Influenza A virus [1]) is reported as > 50 µM.

In the case of `C[C@H]1[C@H](C)CC[C@]2(C(=O)OCc3ccccc3)CC[C@]3(C)C(=CC[C@@H]4[C@@]5(C)CC[C@@H](O[C@@H]6O[C@H](CO)[C@@H](O[C@@H]7O[C@@H](C)[C@H](O)[C@@H](O)[C@H]7O)[C@H](O)[C@H]6O[C@@H]6O[C@@H](C)[C@H](O)[C@@H](O)[C@H]6O)C(C)(C)[C@@H]5CC[C@]43C)[C@H]12`, the IC50 (Influenza A virus [1]) is reported as > 50 µM.

`C[C@H]1[C@H](C)CC[C@]2(C(=O)O)CC[C@]3(C)C(=CC[C@@H]4[C@@]5(C)CC[C@@H](O[C@@H]6O[C@H](CO)[C@@H](O[C@@H]7O[C@@H](C)[C@H](O)[C@@H](O)[C@H]7O)[C@H](O)[C@H]6O[C@@H]6O[C@@H](C)[C@H](O)[C@@H](O)[C@H]6O)C(C)(C)[C@@H]5CC[C@]43C)[C@H]12` showed a selectivity ratio (in vitro) of 5.8, an IC50 (Influenza A virus [1]) of 48.7 µM and a CC50 [2] of 283 µM.

In the case of `C[C@H]1[C@H](C)CC[C@]2(C(=O)Nc3ccccc3)CC[C@]3(C)C(=CC[C@@H]4[C@@]5(C)CC[C@@H](O[C@@H]6O[C@H](CO)[C@@H](O[C@@H]7O[C@@H](C)[C@H](O)[C@@H](O)[C@H]7O)[C@H](O)[C@H]6O[C@@H]6O[C@@H](C)[C@H](O)[C@@H](O)[C@H]6O)C(C)(C)[C@@H]5CC[C@]43C)[C@H]12`, the selectivity ratio (in vitro) is reported as > 29.6, the IC50 (Influenza A virus [1]) is reported as 33.8 µM and the CC50 [2] is reported as > 1000 µM.

In the case of `C[C@H]1[C@H](C)CC[C@]2(C(=O)OC3CCCC3)CC[C@]3(C)C(=CC[C@@H]4[C@@]5(C)CC[C@@H](O[C@@H]6O[C@H](CO)[C@@H](O[C@@H]7O[C@@H](C)[C@H](O)[C@@H](O)[C@H]7O)[C@H](O)[C@H]6O[C@@H]6O[C@@H](C)[C@H](O)[C@@H](O)[C@H]6O)C(C)(C)[C@@H]5CC[C@]43C)[C@H]12`, the selectivity ratio (in vitro) is reported as 12.9, the IC50 (Influenza A virus [1]) is reported as 40.5 µM and the CC50 [2] is reported as 524 µM.

In the case of `NC(=O)c1ncn([C@@H]2O[C@H](CO)[C@@H](O)[C@H]2O)n1` [RIBAVIRIN], the selectivity ratio (in vitro) is reported as 2.7, the IC50 (Influenza A virus [1]) is reported as 47.2 µM and the CC50 [2] is reported as 130 µM. The Activity (Influenza A virus [5]) was “Active”.

For `CNC(=O)[C@]12CC[C@@H](C)[C@H](C)[C@H]1C1=CC[C@@H]3[C@@]4(C)CC[C@@H](O[C@@H]5O[C@H](CO)[C@@H](O[C@@H]6O[C@@H](C)[C@H](O)[C@@H](O)[C@H]6O)[C@H](O)[C@H]5O[C@@H]5O[C@@H](C)[C@H](O)[C@@H](O)[C@H]5O)C(C)(C)[C@@H]4CC[C@@]3(C)[C@]1(C)CC2`, the selectivity ratio (in vitro) was > 81.7, the IC50 (Influenza A virus [1]) was 12.2 µM and the CC50 [2] was > 1000 µM.

In the case of `C[C@H]1[C@H](C)CC[C@]2(C(=O)N(C)C)CC[C@]3(C)C(=CC[C@@H]4[C@@]5(C)CC[C@@H](O[C@@H]6O[C@H](CO)[C@@H](O[C@@H]7O[C@@H](C)[C@H](O)[C@@H](O)[C@H]7O)[C@H](O)[C@H]6O[C@@H]6O[C@@H](C)[C@H](O)[C@@H](O)[C@H]6O)C(C)(C)[C@@H]5CC[C@]43C)[C@H]12`, the Activity (MDCK [6]) is reported as “Non-Toxic”, the selectivity ratio (in vitro) is reported as > 119 and the inhibition (Erythrocyte) is reported as “Dose-dependent effect”. The Kd [7] was 0.00164 µM, the Activity [8] was “Dose-dependent effect” and the IC50 (Influenza A virus [1]) was 8.42 µM. The CC50 [2] was > 1000 µM, the Activity (Influenza A virus [9]) was “Active” and the Activity [10] was “inactive”. For the same molecule, the Activity (Influenza A virus [11]) was “Dose-dependent effect”, the IC50 (H5N1 subtype) was 6.29 µM and the inhibition [12] was “inactive”.
